Test results published in patent US11026944B2, “Compositions and methods for treating insomnia” (Eisai R&D Management Co., Ltd., priority 2014, dated 2021).

Experiments:
Type in all cases: in vivo, human
[1] = test system: subjects with primary insomnia; assay: 001 Study Part B: next day KSS, DSST, PVT
From the text: (§1) After the initial Screening visit, eligible subjects were scheduled to return to the clinic for 2 days during the Screening Period to conduct screening/baseline PSGs. These two days occurred at least 3 days after the initial Screening visit and within a window from Day-7 to Day-6 (±2 days). The first PSG was used to screen for sleep apnea and periodic limb movements in sleep (PLMS) and serve as the first baseline PSG. The second PSG was used as the second baseline PSG. Specific PSG variables were used to determine whether subjects met PSG inclusion criteria, and the average of PSG variables from these two PSGs was used as Baseline for this PD measure. Subjects who had met PSG inclusion criteria returned to the clinic on Day-1 for additional baseline procedures and randomization. Subjects were not allowed to nap on Day 1. On the evening of Day 1, after fasting a minimum of 3 hours, study drug was administered 30 minutes prior to the subject's habitual bedtime (lights-out), as calculated from the sleep diary for the first PSG during the Screening Period. PK blood samples were collected at prespecified timepoints, and PD assessments were performed. PSG was recorded on Day 1, postdose. Subjects were administered additional PD assessments each morning on Day 1 through Day 6. These assessments included the KSS, DSST, and PVT, in order to assess daytime sleepiness, level of alertness, and ability to concentrate. The KSS and DSST were also administered 5 minutes predose and 25 minutes postdose on Day 1, just prior to lights-out. Waketime Questionnaires were administered after the PD assessments within 15 minutes of lights-on, on Day 1 to Day 6. Time and duration of naps was recorded on Day 2.
Part B subjects were administered the KSS, DSST, and PVT within 15 minutes after lights-on specifically in that order, on each morning from Day 1 through Day 6, followed by the Waketime Questionnaire. The KSS and DSST were also administered 5 minutes predose and 25 minutes postdose on Day 1 (just prior to lights-out).

[2] = 001 Study Part B: plasma PK of compound A; settings: subjects with primary insomnia, single evening dose
Protocol: For subjects in Part B, blood samples for measurements of plasma concentrations of compound A were obtained by direct venipuncture on Day 1 predose and at 0.5, 9, 12, 24, 36, 60, 84, 108, 156, and 228 hours postdose.
Plasma concentrations of compound A were measured using a validated liquid chromatography-mass spectrometry/mass spectrometry (LC-MS/MS) assay.

[3] = test system: subjects with primary insomnia; assay: 001 Study Part B: polysomnography (LPS, WASO, SE)
From the text: For Part B, 58 otherwise healthy subjects with primary insomnia were randomized across three cohorts, and stratified by gender. Part B also included an active control (zolpidem) and matching placebo. In each cohort, there were approximately 12 subjects in the compound A/zolpidem-matched placebo group, approximately four subjects in the zolpidem/compound A-matched placebo group, and approximately four subjects in the compound A-matched placebo/zolpidem-matched placebo group. Part B dosing occurred in the evening, 30 minutes prior to the sleep period. The starting dose for Part B was 3 dose levels that determined to be safe and well tolerated in Part A. Subsequent dose levels in Part B were determined based on the PD results of the first cohort in Part B and PD and safety results from at least 3 completed higher dose cohorts in Part A. Each cohort in Part B was divided into at least two groups, with dosing of each group staggered by a minimum of 2 days.
as §1
In addition, PSG was performed during the Screening Period at Days-7 and -6 (±2 days), and postdose on Day 1. An 8-hour diagnostic PSG consisting of electroencephalogram (EEG), electrooculogram (EOG), electromyogram (EMG), ECGs, leg electrodes, and measures of respiratory function (airflow, respiratory effort, and oxygen saturation) were performed starting at the subject's habitual bedtime as determined from the sleep diary for the 3 nights immediately prior to the first PSG on Day-7 (±2 days). PSG variables from this night were used to screen for sleep apnea and PLMS. On Day-6 (±2) and postdose on Day1, standard PSGs (i.e., not including leg electrodes or measures of respiratory function other than oxygen saturation) were performed. Specified PSG variables from these two PSGs conducted during the Screening Period were used to determine whether subjects met PSG inclusion criteria. The average of PSG variables from these two PSGs conducted during the Screening Period were used as baseline PSG values. The key PD parameters such as PSG LPS, TST, SE, and WASO have been obtained from all PSG recordings.

healthy subjects = assay: 001 Study Part A: sleepiness measures KSS, DSST, PVT
Protocol: For Part A, 64 healthy subjects were enrolled into cohorts sequentially in a gradual dose escalation manner, to receive either compound A or placebo, and stratified by gender. Each cohort comprised six compound A- and two placebo-treated subjects. All study drugs were administered as single doses using one or more compound A-capsules or compound A-matched placebo capsules due to the test dose. After screening, subjects underwent baseline procedures and randomization on Day-2. Subjects were dosed on Day 1 in the morning after an overnight fast, 1 hour after lights-on. PK blood samples were collected at prespecified timepoints, and PD assessments were performed. Subjects were administered assessments on Day 1 predose and every 2 hours from 2 to 12 hours postdose, and each morning on Days 2 to 6.
These assessments included the Karolinska Sleepiness Scale (KSS), Digit Symbol Substitution Test (DSST), and Psychomotor Vigilance Test (PVT) in order to assess daytime sleepiness, level of alertness, and ability to concentrate. Waketime Questionnaires were administered after PD assessments each morning on Days 1 to Day 6. Time and duration of naps was recorded on Days 1 and 2. Safety was monitored throughout the study. […]

## Cc1ncc(OC[C@@]2(c3cccc(F)c3)C[C@H]2C(=O)Nc2ccc(F)cn2)c(C)n1 [Compound A, (1R,2 S)-2-(((2,4-dimethylpyrimidin-5-yl)oxy)methyl)-2-(3-fluorophenyl)-N-(5-fluoropyridin-2-yl) cyclopropanecarboxamide]
[1]; any dose of compound A (2.5, 10, 25 mg), zolpidem 10 mg
  next day effects on KSS, DSST, or PVT: no clinically significant next day effects
[1]; single 25 mg evening dose
  measures of next-day residual sleepiness: some individuals at this dose exhibited increases from baseline
[2]
  concentration-time profiles in Part B compared with Part A: approximately similar to their corresponding dose groups in Part A
[3]; single 2.5 mg evening dose
  LPS reduction relative to Baseline: approximately 30 minutes
  WASO reduction relative to Baseline: approximately 30 minutes
[3]; single 10 mg evening dose
  LPS reduction relative to Baseline: approximately 30 minutes
  WASO reduction relative to Baseline: approximately 30 minutes
[3]; single 25 mg evening dose
  LPS reduction relative to Baseline: approximately 45 minutes
  WASO reduction relative to Baseline: more than 45 minutes
Healthy subjects; postdose, coinciding with Cmax
  time of maximal pharmacodynamic response on KSS, DSST, PVT: ~2 h
Healthy subjects; single morning doses 1-200 mg
  measures of sleepiness (KSS, DSST, PVT): general dose-response relationship
